The record followed here is patent US7914793B2, “Method for producing an antigenic substance and antibody” (priority 1997, dated 2011).

The test system of series [1] is Mycobacterium Rapid Grower. Description: CFU of Mycobacterium Rapid Grower after Yoshixol. It counts as cell-based. As to conditions: for CFU: 2 M Yoshixol in ethanol, 10 ul/ml broth, 3.3×10^5, 37° C. The text has this:
(§1) This procedure was repeated twice.

The test system of series [2] is Pseudomonas aureginosa. Nature of the series: CFU of Pseudomonas aureginosa after Yoshixol. It counts as cell-based. Particulars: for CFU: 2 M Yoshixol in ethanol, 10 ul/ml broth, 10^8, 37° C.
Source text: as §1

Series [3] can be described thus: intravenous injection of Yoshixol in control rabbit, observation for abnormal signs. It counts as in vivo. Particulars: Japanese white rabbit, 10 μl/Kg of 2 M Yoshixol with ethanol i.v. for 3 min, immediately after the injection through one month. Here is the method:
In addition, rabbit serum as the control which was shown in this example was produced by the following. In a Japanese white rabbit which was born from a parent as same as a rabbit which was used in the above example, 10 μl/Kg of 2 M Yoshixol with ethanol was injected intravenously for 3 min via a ear vein. Solution of Yoshixol was mixed with culture medium of 5 ml. The medium was filtered through miliporefilter of cellulose acetate (pore size, 0.45 μm). […] A rabbit was sacrificed under Nembutal anesthesia one month after the injection. Blood was removed.

The test system of series [4] is Candida albicans. Description: CFU of Candida albicans in broth after Yoshixol. Format: cell-based. Particulars: for CFU: 2 M Yoshixol in ethanol, 10 ul/ml broth.
Source text: as §1

Series [5] has as its system MRSA. Nature of the series: CFU of MRSA in broth after Yoshixol. Format: cell-based, methicilin resistant Staphylococcus aureus.
Source text: as §1

Each structure is given as a SMILES string.

As to `C=C1CC(C)(C)C=CC1=O` [Yoshixol, 4,4-dimethyl-6-methylene-2-cyclohexen-1-one], the CFU result in series [1] (3 hours after the incubation) is on record as “zero”; in series [1] (one hour after the incubation), “zero”; in series [2] (3 hours after the incubation) it was “zero”; in series [2] (one hour after the incubation) it was “zero”; in series [4] (10^8, 3 hours after the incubation), “zero”; in series [4] (10^8, one hour after the incubation) it was “zero”. In series [5] (2 M Yoshixol in ethanol, 10 ul/ml broth, 7.6×10^8, 37 °, 24 hours after the incubation), the CFU result was “zero”. Moreover, the “colony growth on heart infusion agar after re-plating 0.1 ml” value in series [1] (incubated at 37° C. for 72 hours), in series [2] (incubated at 37° C. for 48 hours), in series [4] (incubated for 48 hours) and in series [5] (incubated for 48 hours) was “no colony growth” in each case. The “abnormal signs after injection” value in series [3] was “Any abnormal sign did not find”.
